From patent US20190365719A1, “COMBINATION TREATMENTS OF HSP90 INHIBITORS FOR ENHANCING TUMOR IMMUNOGENICITY AND METHODS OF USE THEREOF” (Massachusetts Institute of Technology, priority 2018, published 2019) come the findings set out here.

The test system of one data set is MC38 cells. Put plainly: Flow cytometry of MHC Class I H2-Kb surface expression on MC38 cells. Type of data set: cell-based, mouse. How it is done: For analysis of MHC Class I surface expression, cells were seeded into 12 well plates (125,000/well). 24-hours later, cells were treated with the indicated concentrations of HSP90i (NVP-HSP990) or DMSO vehicle. 72-hours after treatment, cells were dissociated with Accumax (Innovative Cell Technologies) and each treatment condition was distributed into 2 wells of a 96 well plate. […] After incubation with antibody, cells were washed 1× in ice cold PBS+10% FBS prior to analysis on a MACSQuant VYB flow cytometer. Cytometric data were plotted and analyzed with FloJo.
For analysis of MHC Class I surface expression, cells were seeded into 12 well plates (125,000/well). 24-hours later, cells were treated with the indicated concentrations of HSP90i (NVP-HSP990) or DMSO vehicle. 72-hours after treatment, cells were dissociated with Accumax (Innovative Cell Technologies) and each treatment condition was distributed into 2 wells of a 96 well plate. […] After incubation with antibody, cells were washed 1× in ice cold PBS+10% FBS prior to analysis on a LSR-2 flow cytometer. Cytometric data were plotted and analyzed with FloJo.
(In flow cytometry, cells or beads pass a laser one at a time.)

The subject of data set [1] is IFN-γ receptor KO and HSF1 knockout MC38 cells. Kind of data set: Flow cytometry of MHC-I on IFN-γ receptor KO and Hsf1 KO MC38 cells. The class given is cell-based, mouse. The procedure: Cell Culture MC38 cells were kindly provided by A. Sharpe from Dana Farber Cancer Institute. Cells were maintained in DMEM supplemented with 10% FBS and penicillin/streptomycin. Cells were confirmed negative for mycoplasma contamination by PCR-based assay. MC38 cells were seeded in 12 well plates at a density of 125,000 cells per well and allowed to attach for 24 hours, and then treated with the indicated concentrations of HSP90i (NVP-HSP990) or IFN-γ. For Ifngra knockout, control or sgRNA targeting Ifngra ([…]) were cloned into pLenti-CRISPRv2 (Addgene #52561). Lentivirus was produced with HEK293T cells and MC38 cells were transduced with standard protocols. Transduced cells were selected with 2 μg/mL puromycin for 72 hours. Selected cells were then treated with DMSO, 60 nM Hsp90i, 10 ng/mL Ifng, or the combination and analyzed by flow cytometry.
For analysis of MHC Class I surface expression, cells were seeded into 12 well plates (125,000/well). 24-hours later, cells were treated with the indicated concentrations of HSP90i (NVP-HSP990) or DMSO vehicle. 72-hours after treatment, cells were dissociated with Accumax (Innovative Cell Technologies) and each treatment condition was distributed into 2 wells of a 96 well plate. […] Cytometric data were plotted and analyzed with FloJo.

Data set [2] can be described thus: Mouse weights and body condition, KP and KPM mice. The conditions noted are these: four weeks of low dose treatment. Type of data set: in vivo. The procedure: FIG. 11A is a box plot showing tumor burden analysis in KP and KPM mice treated with vehicle (control) or Hsp90i. FIG. 11B is a graph showing the longitudinal analysis of mouse weights with vehicle or Hsp90i in the drinking water. The mice were treated for up to 4 weeks with vehicle control or a low dose of HSP90i. In FIG. 11B, KP and KPM mice were combined for vehicle and control treatment groups.
KP and KPM mice were infected intratracheally with Adenovirus expressing Cre recombinase from an SPC promoter at a titer of 2×10^8 plaque forming units per mouse to initiate tumor formation. 8 weeks following tumor initiation, the cohort was randomized and vehicle (control) or Hsp90i (NVP-HSP990) was administered in the drinking water at a dose of 0.5 mg/kg/day for 4 weeks prior to analysis at 12 weeks post tumor induction.

Take `COc1cccc(-c2cc(F)ccc2[C@H]2Cc3nc(N)nc(C)c3C(=O)N2)n1` [NVP-HSP990]: in the data set on MC38 cells (60 nM for each drug), the “MHC-I surface expression on MC38 cells” value is given as “induced MHC-I”. The “MHC Class I surface expression on MC38 cells” value with MC38 cells (15, 30, 60 nM, 72 hours, below the IC50 for cytotoxicity) was “stimulated MHC Class I surface expression”. Further, the “MHC-I in IFN-γ receptor KO MC38 cells” value in data set [1] (60 nM) is “induced MHC-I in IFN-γ receptor KO cells”. Besides, the “MHC-I induction in HSF1 knockout MC38 cells” value in data set [1] (two knockout cell lines) is given as “HSF1 was not required for the induction of MHC-I”. Further, in data set [2], the “mouse mass or body condition” value is “minimal effects on mouse mass or body condition”.
